In PubChem BioAssay AID1919010 (Molecular Pharmacology Branch, DTP, NCI, 2023):

Tested on: Hs578T complex spheroid growth, percent test/control
Assay: Anticancer human tumor Hs578T cell line growth inhibition [AhR];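 also: luminescent viability signal as a proxy for spheroid growth; spheroids exposed to agents for one week after three days of growth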
Details: for IC50: curve of first compound; for viability, T/C: stronger effect = lower value
How it was run: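 Spheroids combined tumor cells with HUVEC endothelial cells and human MSCs as stroma. AhR antagonists were paired with standard or investigational drugs, each dosed in half-log steps down from near clinical Cmax, or from 10 microM where Cmax was unknown.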

[1] = second compound 0.1 µM, first compound 0.0316 µM
[2] = second compound 0.1 µM, first compound 0.1 µM
[3] = second compound 0.1 µM, first compound 0.316 µM
[4] = second compound 0.1 µM, first compound 1 µM
[5] = second compound 0.1 µM, first compound 3.16 µM
[6] = second compound 0.1 µM, first compound 10 µM
[7] = second compound 0.316 µM, first compound 0.0316 µM
[8] = second compound 0.316 µM, first compound 0.1 µM
[9] = second compound 0.316 µM, first compound 0.316 µM
[10] = second compound 0.316 µM, first compound 1 µM
[11] = second compound 0.316 µM, first compound 3.16 µM
[12] = second compound 0.316 µM, first compound 10 µM
[13] = second compound 1 µM, first compound 0.0316 µM
[14] = second compound 1 µM, first compound 0.1 µM
[15] = second compound 1 µM, first compound 0.316 µM
[16] = second compound 1 µM, first compound 1 µM
[17] = second compound 1 µM, first compound 3.16 µM
[18] = second compound 1 µM, first compound 10 µM
[19] = second compound 3.16 µM, first compound 0.0316 µM
[20] = second compound 3.16 µM, first compound 0.1 µM
[21] = second compound 3.16 µM, first compound 0.316 µM
[22] = second compound 3.16 µM, first compound 1 µM
[23] = second compound 3.16 µM, first compound 3.16 µM
[24] = second compound 3.16 µM, first compound 10 µM
[25] = second compound 10 µM, first compound 0.0316 µM
[26] = second compound 10 µM, first compound 0.1 µM
[27] = second compound 10 µM, first compound 0.316 µM
[28] = second compound 10 µM, first compound 1 µM
[29] = second compound 10 µM, first compound 3.16 µM
[30] = second compound 10 µM, first compound 10 µM
[31] = second compound 0.1 µM, first compound 0.00316 µM
[32] = second compound 0.1 µM, first compound 0.01 µM
[33] = second compound 0.316 µM, first compound 0.00316 µM
[34] = second compound 0.316 µM, first compound 0.01 µM
[35] = second compound 1 µM, first compound 0.00316 µM
[36] = second compound 1 µM, first compound 0.01 µM
[37] = second compound 3.16 µM, first compound 0.00316 µM
[38] = second compound 3.16 µM, first compound 0.01 µM
[39] = second compound 10 µM, first compound 0.00316 µM
[40] = second compound 10 µM, first compound 0.01 µM

SMILES | IC50 (second compound 0.1 µM) | IC50 (second compound 0.316 µM) | IC50 (second compound 1 µM) | IC50 (second compound 3.16 µM) | IC50 (second compound 10 µM) | viability, T/C [1] | viability, T/C [2] | viability, T/C [3] | viability, T/C [4] | viability, T/C [7] | viability, T/C [8] | viability, T/C [9] | viability, T/C [10] | viability, T/C [13] | viability, T/C [14] | viability, T/C [15] | viability, T/C [19] | viability, T/C [20] | viability, T/C [25] | viability, T/C [26] | further results
CC(C)c1c(-c2ccccc2)nc2c(C#N)c[nH]n2c1=O + Cc1ccccc1N=Nc1ccc(NC(=O)c2ccnn2C)c(C)c1 | > 10000 nM | > 10000 nM | > 10000 nM | > 10000 nM | > 10000 nM | 102% | 99.4% | 108% | 103% | 105% | 113% | 119% | 99% | 103% | 103% | 106% | 96% | 94.7% | 64.4% | 66% | viability, T/C [5]: 91.4%; viability, T/C [6]: 100%; viability, T/C [11]: 112%; viability, T/C [12]: 104%; viability, T/C [16]: 101%; viability, T/C [17]: 105%; viability, T/C [18]: 96.6%; viability, T/C [21]: 97.1%; viability, T/C [22]: 88.1%; viability, T/C [23]: 91.1%; viability, T/C [24]: 96%; viability, T/C [27]: 70.1%; viability, T/C [28]: 71.2%; viability, T/C [29]: 69.4%; viability, T/C [30]: 67.6%
COc1cc(C2c3cc4c(cc3C(OC3OC5COC(C)OC5C(O)C3O)C3COC(=O)C23)OCO4)cc(OC)c1O (stereo not given) + Cc1cncc(-c2nc(NCCc3c[nH]c4ccccc34)c3ncn(C(C)C)c3n2)c1 | > 10000 nM | > 10000 nM | > 10000 nM | 1860 nM | < 31.6 nM | 108% | 101% | 89% | 80.7% | 108% | 101% | 94.3% | 77% | 96.9% | 101% | 93% | 64% | 64.1% | 6.72% | 7.12% | viability, T/C [5]: 88.5%; viability, T/C [6]: 63.9%; viability, T/C [11]: 76.9%; viability, T/C [12]: 61.3%; viability, T/C [16]: 85.8%; viability, T/C [17]: 73.2%; viability, T/C [18]: 63%; viability, T/C [21]: 61.5%; viability, T/C [22]: 49%; viability, T/C [23]: 49.3%; viability, T/C [24]: 37.8%; viability, T/C [27]: 5.72%; viability, T/C [28]: 3.77%; viability, T/C [29]: 4.01%; viability, T/C [30]: 4.25%
Nc1ccn(C2OC(CO)C(O)C2(F)F)c(=O)n1 (stereo not given) + Cc1cncc(-c2nc(NCCc3c[nH]c4ccccc34)c3ncn(C(C)C)c3n2)c1 | > 10000 nM | > 10000 nM | > 10000 nM | < 31.6 nM | < 31.6 nM | 59.4% | 59.6% | 62.6% | 56.5% | 67.2% | 65.4% | 63% | 60.9% | 61.6% | 65.2% | 56.3% | 37.8% | 42.8% | 4.28% | 4.47% | viability, T/C [5]: 57.5%; viability, T/C [6]: 56.8%; viability, T/C [11]: 59.4%; viability, T/C [12]: 59.2%; viability, T/C [16]: 57.8%; viability, T/C [17]: 56.8%; viability, T/C [18]: 56.2%; viability, T/C [21]: 41.1%; viability, T/C [22]: 40.4%; viability, T/C [23]: 33.3%; viability, T/C [24]: 37.8%; viability, T/C [27]: 3.43%; viability, T/C [28]: 2.76%; viability, T/C [29]: 3.29%; viability, T/C [30]: 4.67%

Continued, in another order:

IC50 (second compound 0.1 µM) | IC50 (second compound 0.316 µM) | IC50 (second compound 1 µM) | IC50 (second compound 3.16 µM) | IC50 (second compound 10 µM) | SMILES | viability, T/C [1] | viability, T/C [2] | viability, T/C [3] | viability, T/C [4] | viability, T/C [7] | viability, T/C [8] | viability, T/C [9] | viability, T/C [10] | viability, T/C [13] | viability, T/C [14] | viability, T/C [15] | viability, T/C [19] | viability, T/C [20] | viability, T/C [25] | viability, T/C [26] | further results
> 100 nM | > 100 nM | > 100 nM | 14.7 nM | < 0.316 nM | CC[C@@]1(O)C(=O)OCc2c1cc1n(c2=O)Cc2cc3c(CN(C)C)c(O)ccc3nc2-1 + Cc1cncc(-c2nc(NCCc3c[nH]c4ccccc34)c3ncn(C(C)C)c3n2)c1 | 81.7% | 71.1% |  |  | 80.5% | 76.8% |  |  | 74.6% | 72.4% |  | 44.5% | 46.4% | 6.14% | 6.3% | viability, T/C (second compound 0.1 µM, first compound 0.000316 µM): 109%; viability, T/C (second compound 0.1 µM, first compound 0.001 µM): 112%; viability, T/C [31]: 95.3%; viability, T/C [32]: 91.8%; viability, T/C (second compound 0.316 µM, first compound 0.000316 µM): 113%; viability, T/C (second compound 0.316 µM, first compound 0.001 µM): 112%; viability, T/C [33]: 108%; viability, T/C [34]: 86.2%; viability, T/C (second compound 1 µM, first compound 0.000316 µM): 102%; viability, T/C (second compound 1 µM, first compound 0.001 µM): 121%; viability, T/C [35]: 98.2%; viability, T/C [36]: 86.9%; viability, T/C (second compound 3.16 µM, first compound 0.000316 µM): 68.3%; viability, T/C (second compound 3.16 µM, first compound 0.001 µM): 72.9%; viability, T/C [37]: 67.6%; viability, T/C [38]: 52.4%; viability, T/C (second compound 10 µM, first compound 0.000316 µM): 9.03%; viability, T/C (second compound 10 µM, first compound 0.001 µM): 8.61%; viability, T/C [39]: 7.61%; viability, T/C [40]: 6.12%
561 nM | 480 nM | 363 nM | 315 nM | < 31.6 nM | COc1cccc2c1C(=O)c1c(O)c3c(c(O)c1C2=O)CC(O)(C(=O)CO)CC3OC1CC(N)C(O)C(C)O1 (stereo not given) + Cc1cncc(-c2nc(NCCc3c[nH]c4ccccc34)c3ncn(C(C)C)c3n2)c1 | 90.3% | 87.7% | 73.5% | 26.6% | 97.1% | 87.5% | 68.2% | 19.3% | 92.9% | 80.5% | 56.7% | 62.1% | 52.9% | 6.81% | 6.99% | viability, T/C [5]: 3.41%; viability, T/C [6]: 3.51%; viability, T/C [11]: 3.19%; viability, T/C [12]: 3.19%; viability, T/C [16]: 12.3%; viability, T/C [17]: 2.37%; viability, T/C [18]: 2.76%; viability, T/C [21]: 50.1%; viability, T/C [22]: 5.82%; viability, T/C [23]: 1.65%; viability, T/C [24]: 1.75%; viability, T/C [27]: 11.9%; viability, T/C [28]: 0.55%; viability, T/C [29]: 0.74%; viability, T/C [30]: 0.83%
> 1000 nM | > 1000 nM | > 1000 nM | > 1000 nM | < 3.16 nM | Nc1ncn(C2CC(O)C(CO)O2)c(=O)n1 (stereo not given) + Cc1cncc(-c2nc(NCCc3c[nH]c4ccccc34)c3ncn(C(C)C)c3n2)c1 | 111% | 112% | 108% | 106% | 119% | 111% | 106% | 102% | 112% | 108% | 112% | 82.6% | 74.4% | 6.65% | 6.53% | viability, T/C [31]: 105%; viability, T/C [32]: 114%; viability, T/C [33]: 116%; viability, T/C [34]: 110%; viability, T/C [35]: 109%; viability, T/C [36]: 105%; viability, T/C [16]: 108%; viability, T/C [37]: 73.1%; viability, T/C [38]: 76.2%; viability, T/C [21]: 77.4%; viability, T/C [22]: 75.7%; viability, T/C [39]: 6.02%; viability, T/C [40]: 6.62%; viability, T/C [27]: 6.26%; viability, T/C [28]: 6.45%
